The values below come from paper PMC6018403 (Frontiers in Pharmacology, 2018).

The structures appear in SMILES notation. Where two headings read alike, the source gives them in different places.

The target of one data set is T1, P-glycoprotein (P-gp) (Homo sapiens, UniProt P08183).
T1 construct: host or cells: Caco-2 (human colon adenocarcinoma) monolayers, passages 24-35
As to the kind of experiment: P-gp inhibitor and inducer experiments on Caco-2 cell monolayer. Conditions: added together with BER 5 μM; verapamil 5 μM; rifampicin 5, 20, 50 μM. It counts as in vitro ADME. The protocol:
The final concentration of GQD, GQD−GC, and Huang-Lian water extracts were 32, 28, and 6 μg/mL, respectively. […]
containing glucose (25 mM) and HEPES (10 mM). The final concentration of berberine was 5 µM. The final concentration of DMSO was below 1% (v/v). […]
inducer of Caco-2 cells, respectively. For the inhibitor experiments, the Caco-2 cells were cultivated in DMEM until the 21st day. After removal of the medium, the cells were incubated for 30 minutes with HBSS containing 5 µM of verapamil. For the inducer experiments, the cells were cultivated in DMEM until the 18th day, and then […]
was removed on the 21st day, and the cells were then incubated for 30 min with HBSS.
Berberine and glycyrrhizic acid were added to the system following HBSS incubation.
For all bidirectional transport assays, samples (300 µL) were collected after 30, 60, 90, […]
with an equal volume of HBSS. The samples were freeze-dried and then dissolved in 300 µL of methanol. The solutions were filtered through 0.22-µm membranes before […]
3. Inhibitor and inducer experiments […]
respectively. For the inhibition experiments, Caco-2 cells were cultivated in DMEM until the 21st day. After removal of the medium, the cells were incubated for 30 minutes with HBSS containing verapamil (5 µM). For induction experiments, the cells were cultivated in DMEM until the 18th day, and then cultivated in DMEM […]
The medium was removed on the 21st day, and the cells were then incubated for 30 min with HBSS. Berberine and glycyrrhizic acid were added to the system following HBSS incubation.

The nature of data set [1]: Multi-component pharmacokinetic study of GQD, GQD-GC and single herb extracts in rats (plasma, LC/MS/MS). It counts as in vivo, Sprague-Dawley rats. Conditions: rat. An outline of the steps: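 Male Sprague-Dawley rats (220–250 g, n = 10 per group) dosed orally with GQD, GQD-GC (1.0 g crude drug/mL) or single-herb decoctions. Plasma analytes quantified by LC/MS/MS in positive-ESI SRM mode. Cmax and Tmax taken from measured data, other parameters by non-compartmental or compartmental analysis; mean ± SD.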

The mark [2] stands for this setting: male, Sprague-Dawley, plasma, po, 16.5 g/kg, GQD-GC group (GQD without Gan-Cao): rats, oral 16.5 g/kg, plasma, read-out: AUClast.
The mark [3] stands for this setting: male, Sprague-Dawley, plasma, po, 18.9 g/kg, GQD group: rats, oral GQD extract 18.9 g/kg, plasma, read-out: AUClast.
Where [4] appears, read: male, Sprague-Dawley, GQD group: rats, oral GQD extract 18.9 g/kg, plasma, read-out: Cmax.
The mark [5] stands for this setting: male, Sprague-Dawley, GQD group: rats, oral GQD extract 18.9 g/kg, plasma, read-out: T1/2 (converted).
The mark [6] stands for this setting: male, Sprague-Dawley, GQD group: rats, oral GQD extract 18.9 g/kg, plasma, read-out: Tmax.
Where [7] appears, read: male, Sprague-Dawley, GQD-GC group (GQD without Gan-Cao): rats, oral 16.5 g/kg, plasma, read-out: Cmax.
The mark [8] stands for this setting: male, Sprague-Dawley, GQD-GC group (GQD without Gan-Cao): rats, oral 16.5 g/kg, plasma, read-out: T1/2 (converted).
[9] abbreviates: male, Sprague-Dawley, GQD-GC group (GQD without Gan-Cao): rats, oral 16.5 g/kg, plasma, read-out: Tmax.
Setting [10] is: male, Sprague-Dawley, in vivo, po, 2.36 g/kg.
[11] abbreviates: male, Sprague-Dawley, in vivo, po, 2.36 g/kg, AUClast.
Setting [12] is: male, Sprague-Dawley, in vivo, po, 18.9 g/kg.
The mark [13] stands for this setting: male, Sprague-Dawley, in vivo, po, 18.9 g/kg, AUClast.
Setting [14] is: male, Sprague-Dawley, in vivo, po, 3.54 g/kg.
The mark [15] stands for this setting: male, Sprague-Dawley, in vivo, po, 3.54 g/kg, AUClast.
Setting [16] is: male, Sprague-Dawley, in vivo, po, 16.5 g/kg.

T1 sequence (P08183 whole entry): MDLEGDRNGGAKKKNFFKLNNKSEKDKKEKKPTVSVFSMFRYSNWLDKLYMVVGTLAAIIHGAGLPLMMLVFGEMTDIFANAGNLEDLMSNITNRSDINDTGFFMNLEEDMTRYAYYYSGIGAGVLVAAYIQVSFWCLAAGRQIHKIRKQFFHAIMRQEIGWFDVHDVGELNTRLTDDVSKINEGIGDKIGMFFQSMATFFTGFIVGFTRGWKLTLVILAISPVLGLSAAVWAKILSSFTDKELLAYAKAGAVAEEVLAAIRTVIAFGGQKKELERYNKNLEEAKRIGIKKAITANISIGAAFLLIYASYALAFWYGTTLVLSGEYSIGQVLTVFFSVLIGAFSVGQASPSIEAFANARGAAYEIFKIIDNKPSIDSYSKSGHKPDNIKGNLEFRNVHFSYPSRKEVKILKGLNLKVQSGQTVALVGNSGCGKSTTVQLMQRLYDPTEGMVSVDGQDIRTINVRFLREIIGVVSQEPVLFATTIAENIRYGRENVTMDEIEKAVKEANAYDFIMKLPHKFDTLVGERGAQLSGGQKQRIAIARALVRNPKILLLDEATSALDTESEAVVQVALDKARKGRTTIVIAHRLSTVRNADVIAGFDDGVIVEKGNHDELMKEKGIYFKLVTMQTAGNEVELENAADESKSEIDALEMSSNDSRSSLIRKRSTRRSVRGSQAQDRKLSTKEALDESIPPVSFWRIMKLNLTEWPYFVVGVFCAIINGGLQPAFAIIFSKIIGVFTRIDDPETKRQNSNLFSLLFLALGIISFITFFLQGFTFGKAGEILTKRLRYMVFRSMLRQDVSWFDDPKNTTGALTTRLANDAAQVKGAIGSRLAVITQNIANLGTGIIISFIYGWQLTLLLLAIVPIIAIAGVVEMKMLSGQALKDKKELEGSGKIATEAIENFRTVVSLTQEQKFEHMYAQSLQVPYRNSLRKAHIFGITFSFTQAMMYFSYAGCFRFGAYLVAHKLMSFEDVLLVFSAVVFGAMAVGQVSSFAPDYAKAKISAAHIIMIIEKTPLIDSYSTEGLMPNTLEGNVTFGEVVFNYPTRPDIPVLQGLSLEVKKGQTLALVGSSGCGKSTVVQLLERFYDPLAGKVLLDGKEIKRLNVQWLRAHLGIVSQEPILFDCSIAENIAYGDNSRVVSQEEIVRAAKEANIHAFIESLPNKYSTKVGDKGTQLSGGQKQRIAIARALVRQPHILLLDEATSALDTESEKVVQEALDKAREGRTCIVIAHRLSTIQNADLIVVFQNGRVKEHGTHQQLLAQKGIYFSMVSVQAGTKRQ

For `CO[C@H]1/C=C/O[C@@]2(C)Oc3c(C)c(O)c4c(O)c(c(/C=N/N5CCN(C)CC5)c(O)c4c3C2=O)NC(=O)/C(C)=C\C=C\[C@H](C)[C@H](O)[C@@H](C)[C@@H](O)[C@@H](C)[C@H](OC(C)=O)[C@@H]1C` [rifampicin, reference compound], on P-glycoprotein (P-gp), the “effect on the efflux of BER” value was “increased” and the “effect on the influx of BER” value was “decreased”.
As usually defined, the Cmax is the peak of the concentration-time curve. The Tmax is the time from dosing to the highest level. As for `O=c1c(-c2ccc(O)cc2)coc2c(C3OC(COC4OCC(O)(CO)C4O)C(O)C(O)C3O)c(O)cc(O)c12` (stereo not drawn) [Compound 6, genistein 8-C-apiofuranosyl(1,6)glucoside], the AUC(0-t) in data set [1] (male, Sprague-Dawley, plasma, po, 9.45 g/kg, GG (Ge-Gen) group: rats, oral extract 9.45 g/kg, plasma, read-out: AUClast) stood at 168 ± 33.6 ng·h/mL; in data set [1] (setting [2]), 96.3 ± 105 ng·h/mL; in data set [1] (setting [3]), 98.8 ± 24.8 ng·h/mL. Besides, the Cmax in data set [1] (male, Sprague-Dawley, GG (Ge-Gen) group: rats, oral extract 9.45 g/kg, plasma, read-out: Cmax) turned out to be 11.3 ± 1.8 ng/mL; in data set [1] (setting [4]) it was 11.3 ± 3.32 ng/mL; in data set [1] (setting [7]), 12.1 ± 7.87 ng/mL. Moreover, the half-life in data set [1] (male, Sprague-Dawley, GG (Ge-Gen) group: rats, oral extract 9.45 g/kg, plasma, read-out: T1/2 (converted)) was 5.57 ± 3.48 h; in data set [1] (setting [5]) it was 6.77 ± 3.44 h; in data set [1] (setting [8]), 2.15 ± 1.7 h. Moreover, the Tmax worked out at 0.73 ± 0.3 h in data set [1] (male, Sprague-Dawley, GG (Ge-Gen) group: rats, oral extract 9.45 g/kg, plasma, read-out: Tmax); 8.39 ± 0.23 h in data set [1] (setting [6]); 1.56 ± 1.53 h in data set [1] (setting [9]).
With `O=C1C[C@@H](c2ccc(O[C@@H]3O[C@H](CO)[C@@H](O)[C@H](O)[C@H]3O)cc2)Oc2cc(O)ccc21` [Compound 26, liquiritin], in data set [1] (setting [10]), the concentration peaked (Cmax) at 18.6 ± 7.53 ng/mL, the T1/2 turned out to be 7.84 ± 0.38 h and the Tmax came to 1.34 ± 3 h. Also, the AUC(0-t) in data set [1] (setting [11]) was 237 ± 92.4 ng·h/mL. Further, in data set [1] (setting [12]), the AUClast is 416.94 ± 210.31 ng·h/mL, the concentration peaked (Cmax) at 20.8 ± 1.86 ng/mL, the Tmax is 2.5 ± 4.76 h and the half-life is 12.1 ± 1.16 h. Besides, the AUC(0-t) in data set [1] (setting [13]) is greater than 300 ng·h/mL. In addition, the “plasma concentrations, effect of GQD compared with Gan-Cao” value in data set [1] (in vivo, po) is listed as “improved”.
Regarding `COc1cc2c(cc1OC)-c1cc3ccc(OC)c(OC)c3c[n+]1CC2` [Compound 25, palmatine], in data set [1] (male, Sprague-Dawley, in vivo, po), the “increase of AUClast in GQD group compared with the Huang-Lian group” value is recorded as 32.7%. In addition, the Cmax in data set [1] (setting [14]) worked out at 5.96 ± 1.35 ng/mL; in data set [1] (setting [16]) it was 4.75 ± 10.2 ng/mL; in data set [1] (setting [12]), 17.1 ± 2.98 ng/mL. Moreover, the Tmax in data set [1] (setting [14]) was found to be 0.25 ± 1.25 h; in data set [1] (setting [16]), 0.26 ± 0.15 h; in data set [1] (setting [12]), 0.17 ± 0.03 h. The half-life in data set [1] (setting [14]) was 3.25 ± 2.43 h; in data set [1] (setting [16]), 3.03 ± 2.36 h; in data set [1] (setting [12]), 1.62 ± 1.82 h. In addition, the AUC(0-t) in data set [1] (setting [15]) came to 51.5 ± 27.8 ng·h/mL; in data set [1] (male, Sprague-Dawley, in vivo, po, 16.5 g/kg, AUClast), 43.4 ± 17 ng·h/mL; in data set [1] (setting [13]), 68.3 ± 39.2 ng·h/mL.
Take `O=c1cc(-c2ccccc2)oc2cc(O)cc(O)c12` [Compound 18, chrysin]: in data set [1] (setting [14]), the concentration peaked (Cmax) at 4.1 ± 0.44 ng/mL, the Tmax was determined as 0.58 ± 0.23 h and the half-life was 4.87 ± 1.43 h. In data set [1] (setting [15]), this molecule returned an AUC(0-t) of 41.3 ± 1.34 ng·h/mL.
With `O=C(/C=C/c1ccc(O)cc1)c1ccc(O)cc1O` [Compound 28, isoliquiritigenin], the AUC(0-t) in data set [1] (male, Sprague-Dawley, plasma, po, 2.36 g/kg, GC (Gan-Cao) group: rats, oral extract 2.36 g/kg, plasma, read-out: AUClast) was determined as 1.28 ± 0.03 ng·h/mL; in data set [1] (setting [3]), 39.2 ± 8.9 ng·h/mL. Also, the Cmax in data set [1] (male, Sprague-Dawley, GC (Gan-Cao) group: rats, oral extract 2.36 g/kg, plasma, read-out: Cmax) came to 1.16 ± 0.52 ng/mL; in data set [1] (setting [4]) it was 2.81 ± 0.87 ng/mL. Further, the half-life in data set [1] (male, Sprague-Dawley, GC (Gan-Cao) group: rats, oral extract 2.36 g/kg, plasma, read-out: T1/2 (converted)) is 0.28 ± 0.08 h; in data set [1] (setting [5]), 3.55 ± 0.08 h. In addition, the Tmax in data set [1] (male, Sprague-Dawley, GC (Gan-Cao) group: rats, oral extract 2.36 g/kg, plasma, read-out: Tmax) was determined as 0.41 ± 0.47 h; in data set [1] (setting [6]), 5.33 ± 0.89 h.
As to `CC1(C(=O)O)CCC2(C)CCC3(C)C(=CC(=O)C4C5(C)CCC(OC6OC(C(=O)O)C(O)C(O)C6OC6OC(C(=O)O)C(O)C(O)C6O)C(C)(CO)C5CCC43C)C2C1` (stereo not drawn) [Compound 35, licorice saponin G2], in data set [1] (setting [10]), the Cmax came out at 8.98 ± 2.49 ng/mL, the Tmax was 3.7 ± 1.41 h and the half-life is 2.3 ± 6.79 h. The molecule also yielded an AUC(0-t) in data set [1] (setting [11]) of 81 ± 27.7 ng·h/mL. For the same molecule, in data set [1] (setting [12]), the Cmax was determined as 10.3 ± 6.38 ng/mL, the Tmax stood at 3.89 ± 1.41 h and the half-life was 2.53 ± 0.14 h. In addition, the AUC(0-t) in data set [1] (setting [13]) amounted to 102 ± 53.3 ng·h/mL.
Turning to `COc1c(O)cc(OC2OC(CO)C(O)C(O)C2O)c2c(=O)cc(-c3ccccc3)oc12` (stereo not drawn) [Compound 13, wogonin 5-O-glucoside], the AUC(0-t) in data set [1] (male, Sprague-Dawley, plasma, po, 3.54 g/kg, HQ (Huang-Qin) group: rats, oral extract 3.54 g/kg, plasma, read-out: AUClast) was found to be 42.8 ± 6.01 ng·h/mL; in data set [1] (setting [2]) it was 28.2 ± 3.04 ng·h/mL; in data set [1] (setting [3]) it was 53 ± 7.56 ng·h/mL. Moreover, the Cmax in data set [1] (setting [4]) worked out at 1.83 ± 0.14 ng/mL; in data set [1] (setting [7]), 5.17 ± 0.26 ng/mL; in data set [1] (male, Sprague-Dawley, HQ (Huang-Qin) group: rats, oral extract 3.54 g/kg, plasma, read-out: Cmax), 1.92 ± 0.13 ng/mL. Further, the half-life in data set [1] (setting [5]) was 16.1 ± 4.22 h; in data set [1] (setting [8]), 13.1 ± 3.96 h; in data set [1] (male, Sprague-Dawley, HQ (Huang-Qin) group: rats, oral extract 3.54 g/kg, plasma, read-out: T1/2 (converted)) it was 16.1 ± 5.45 h. In addition, the Tmax in data set [1] (setting [6]) came out at 2 ± 1.29 h; in data set [1] (setting [9]), 2 ± 4.23 h; in data set [1] (male, Sprague-Dawley, HQ (Huang-Qin) group: rats, oral extract 3.54 g/kg, plasma, read-out: Tmax), 0.1 ± 0.07 h.
